Source: publication PMC7413254 (Nature Communications, 2020)

Experiments:
Type in all cases: cell-based
PfCRT^Ecu1110 [1] = molecular target: T1, PfCRT^Ecu1110 (Plasmodium falciparum, UniProt Q9N623, A220S/I356L/K76T/N326D); test: cell-based; conditions: for PfCRT-mediated [3H]CQ transport, trans-stimulation (% PfCRTEcu1110 control): PfCRTEcu1110 oocytes, normalised to oocyte type control; for [3H]CQ transport (% PfCRTDd2 control), trans-stimulation, PfCRTEcu1110: PfCRT-mediated component (background subtracted), sheet title says normalised to PfCRTDd2 control, mean ± SEM, SEM
How it was run: (§1)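 Oocytes (ten per treatment, ≥4 independent frogs/days) were preloaded by injecting VF-6 in 25 nL ND96 at pH 5.0, 5.5, 6.0 or 7.0, or Na^+-free choline buffer, then uptake run 1.5 h, 27.5 °C, ND96 pH 5.5 by default. Internal concentrations assumed ~400 nL oocyte volume.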

PfCRT^3D7 = PfCRT^3D7 (Plasmodium falciparum, UniProt Q8IBZ9); test: cell-based; conditions: PfCRT3D7 oocytes, normalised to oocyte type control
How it was run: as §1

PfCRT^Dd2 [2] = molecular target: T2, PfCRT^Dd2 (Plasmodium falciparum, UniProt Q9N623, A220S/I356T/K76T/M74I/N326S/N75E/Q271E/R371I); test: cell-based; conditions: for PfCRT-mediated [3H]CQ transport, trans-stimulation (% PfCRTDd2 control): PfCRTDd2 oocytes, normalised to oocyte type control; for [3H]CQ transport (% PfCRTDd2 control), trans-stimulation, PfCRTDd2: PfCRT-mediated component (background subtracted), mean ± SEM, SEM
How it was run: as §1

PfCRT^Ecu1110 [3] = molecular target: T1, PfCRT^Ecu1110; test: [3H]CQ uptake into Xenopus oocytes, cis-inhibition by unlabelled solute; conditions: for PfCRT-mediated [3H]CQ transport, cis-inhibition (% PfCRTEcu1110 control): PfCRTEcu1110 oocytes, background [3H]CQ accumulation subtracted, normalised to oocyte type control; for [3H]CQ transport (% PfCRTEcu1110 control), cis-inhibition, PfCRTEcu1110: PfCRT-mediated component (background subtracted), sheet title says normalised to PfCRTDd2 control, mean ± SEM, SEM
How it was run: (§2)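 ND96, pH 5.5, 1.5 h, 27.5 °C; uptake direction acidic outside → oocyte cytosol, mimicking efflux from digestive vacuole. Ice-cold wash stop, 10% SDS lysis, scintillation counting. Ten oocytes/treatment, ≥4 independent experiments.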

PfCRT^Dd2 [4] = molecular target: T2, PfCRT^Dd2; test: as above; conditions: PfCRTDd2 oocytes, background [3H]CQ accumulation subtracted, normalised to oocyte type control
How it was run: as §2

[5] = [test solute]i = 5 mM (intracellular)
[6] = [test solute]i = 45 mM (intracellular; 30 mM for some solutes due to solubility)
[7] = [test solute]i = 5 mM (injected)
[8] = [test solute]i = 45 mM (30 mM for some solutes due to solubility)

Chain of PfCRT^3D7 (Q8IBZ9 59-398): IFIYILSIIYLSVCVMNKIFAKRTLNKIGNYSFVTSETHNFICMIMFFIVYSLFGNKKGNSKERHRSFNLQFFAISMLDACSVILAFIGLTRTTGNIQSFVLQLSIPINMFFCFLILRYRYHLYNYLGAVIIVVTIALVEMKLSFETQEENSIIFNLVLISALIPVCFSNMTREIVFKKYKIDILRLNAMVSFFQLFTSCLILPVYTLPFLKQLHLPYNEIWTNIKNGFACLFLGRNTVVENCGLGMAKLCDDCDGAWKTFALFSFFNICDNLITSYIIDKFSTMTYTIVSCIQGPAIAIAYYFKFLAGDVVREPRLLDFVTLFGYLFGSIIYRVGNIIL
T2 sequence (Q9N623 whole entry A220S/I356T/K76T/M74I/N326S/N75E/Q271E/R371I): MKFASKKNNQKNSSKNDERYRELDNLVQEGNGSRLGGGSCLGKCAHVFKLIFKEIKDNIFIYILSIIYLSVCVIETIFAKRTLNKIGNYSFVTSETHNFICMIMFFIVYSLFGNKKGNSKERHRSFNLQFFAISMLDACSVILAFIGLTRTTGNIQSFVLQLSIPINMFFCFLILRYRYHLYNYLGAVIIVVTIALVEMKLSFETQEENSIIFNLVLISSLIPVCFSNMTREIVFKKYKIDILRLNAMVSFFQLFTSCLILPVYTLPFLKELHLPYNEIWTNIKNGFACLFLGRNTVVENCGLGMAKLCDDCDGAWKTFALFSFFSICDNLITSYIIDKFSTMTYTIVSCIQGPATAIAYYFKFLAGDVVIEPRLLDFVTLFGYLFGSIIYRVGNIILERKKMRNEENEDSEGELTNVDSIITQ
T1 sequence (Q9N623 whole entry A220S/I356L/K76T/N326D): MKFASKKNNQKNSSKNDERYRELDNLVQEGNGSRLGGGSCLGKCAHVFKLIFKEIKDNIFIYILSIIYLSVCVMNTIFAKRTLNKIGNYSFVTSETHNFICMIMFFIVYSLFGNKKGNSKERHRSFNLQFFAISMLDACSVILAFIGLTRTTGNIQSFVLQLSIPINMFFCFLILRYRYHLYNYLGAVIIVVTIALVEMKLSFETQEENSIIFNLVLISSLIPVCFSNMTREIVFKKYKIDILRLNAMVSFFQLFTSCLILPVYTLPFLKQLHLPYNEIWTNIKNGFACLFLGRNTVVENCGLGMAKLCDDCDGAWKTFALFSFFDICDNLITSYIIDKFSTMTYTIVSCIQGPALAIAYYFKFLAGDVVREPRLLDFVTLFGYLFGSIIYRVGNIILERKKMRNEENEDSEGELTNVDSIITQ

| Substance | PfCRT-mediated [3H]CQ transport, trans-stimulation (% PfCRTEcu1110 control) (PfCRT^Ecu1110 [1]; [5]) | PfCRT-mediated [3H]CQ transport, trans-stimulation (% PfCRTEcu1110 control) (PfCRT^Ecu1110 [1]; [6]) | [3H]CQ transport (% PfCRTDd2 control), trans-stimulation, PfCRTEcu1110 (PfCRT^Ecu1110 [1]; [7]) [% PfCRTEcu1110 control] | [3H]CQ transport (% PfCRTDd2 control), trans-stimulation, PfCRTEcu1110 (PfCRT^Ecu1110 [1]; [8]) [% PfCRTEcu1110 control] | PfCRT-mediated [3H]CQ transport, trans-stimulation (% PfCRT3D7 control) (PfCRT^3D7; [5]) | PfCRT-mediated [3H]CQ transport, trans-stimulation (% PfCRT3D7 control) (PfCRT^3D7; [6]) | PfCRT-mediated [3H]CQ transport, trans-stimulation (% PfCRTDd2 control) (PfCRT^Dd2 [2]; [5]) | PfCRT-mediated [3H]CQ transport, trans-stimulation (% PfCRTDd2 control) (PfCRT^Dd2 [2]; [6]) | [3H]CQ transport (% PfCRTDd2 control), trans-stimulation, PfCRTDd2 (PfCRT^Dd2 [2]; [7]) [% PfCRTDd2 control] | [3H]CQ transport (% PfCRTDd2 control), trans-stimulation, PfCRTDd2 (PfCRT^Dd2 [2]; [8]) [% PfCRTDd2 control] | PfCRT-mediated [3H]CQ transport, cis-inhibition (% PfCRTEcu1110 control) (PfCRT^Ecu1110 [3]; [test solute] = 0.5 mM) | PfCRT-mediated [3H]CQ transport, cis-inhibition (% PfCRTEcu1110 control) (PfCRT^Ecu1110 [3]; [test solute] = 1 mM) | PfCRT-mediated [3H]CQ transport, cis-inhibition (% PfCRTEcu1110 control) (PfCRT^Ecu1110 [3]; [test solute] = 2 mM) | [3H]CQ transport (% PfCRTEcu1110 control), cis-inhibition, PfCRTEcu1110 (PfCRT^Ecu1110 [3]; [test solute] = 2 mM) [% PfCRTEcu1110 control] | PfCRT-mediated [3H]CQ transport, cis-inhibition (% PfCRTDd2 control) (PfCRT^Dd2 [4]; [test solute] = 0.5 mM) | PfCRT-mediated [3H]CQ transport, cis-inhibition (% PfCRTDd2 control) (PfCRT^Dd2 [4]; [test solute] = 1 mM) | PfCRT-mediated [3H]CQ transport, cis-inhibition (% PfCRTDd2 control) (PfCRT^Dd2 [4]; [test solute] = 2 mM) | [3H]CQ transport (% PfCRTEcu1110 control), cis-inhibition, PfCRTEcu1110 (PfCRT^Ecu1110 [3]; [test solute] = 0.5 mM) [% PfCRTEcu1110 control] | [3H]CQ transport (% PfCRTEcu1110 control), cis-inhibition, PfCRTEcu1110 (PfCRT^Ecu1110 [3]; [test solute] = 1 mM) [% PfCRTEcu1110 control] |
| --- | --- | --- | --- | --- | --- | --- | --- | --- | --- | --- | --- | --- | --- | --- | --- | --- | --- | --- | --- |
| HVDPENF [HF-7] | 131 ± 3.7 | 138 ± 4.1 | 40 ± 2.1 | 42 ± 1.5 | 140 ± 5.2 | 189 ± 6.2 | 100 ± 1.9 | 112 ± 1.7 | 100 ± 1.9 | 112 ± 1.7 | 41 ± 1.8 | 31 ± 3.1 | 22 ± 0.4 | 7.0 ± 0.01 | 40 ± 2.3 | 31 ± 2.3 | 18 ± 0.6 | – | – |
| DLDDALDK [DK-8] | 95 ± 4.9 | 97 ± 2.9 | 29 ± 1.5 | 29 ± 1.1 | 96 ± 3.3 | 96 ± 3.4 | 98 ± 3.3 | 95 ± 4.1 | 98 ± 3.3 | 95 ± 4.1 | 49 ± 1.4 | 39 ± 2.1 | 30 ± 0.8 | 9.0 ± 0.05 | 44 ± 3.7 | 32 ± 1.5 | 24 ± 0.8 | 15 ± 0.6 | 13 ± 0.1 |
| PHFDLS [PS-6] | 121 ± 4.5 | 138 ± 4.6 | 37 ± 1.4 | 43 ± 1.3 | 140 ± 4.3 | 188 ± 4.5 | 96 ± 4.7 | 95 ± 4.6 | 96 ± 4.7 | 95 ± 4.6 | 41 ± 2.5 | 33 ± 1.7 | 21 ± 1.6 | 7.0 ± 0.01 | 46 ± 1.0 | 32 ± 1.1 | 17 ± 0.3 | – | – |
| EFTPPVQA [EA-8] | 127 ± 3.1 | 136 ± 4.1 | – | – | 131 ± 2.9 | 174 ± 3.3 | 97 ± 2.2 | 98 ± 1.9 | – | – | 58 ± 1.1 | 43 ± 1.6 | 29 ± 2.5 | – | – | 27 ± 0.9 | 18 ± 0.2 | – | – |
